Measurements reported in patent US6949545B2, “Heterocyclic side chain containing, n-substituted metalloprotease inhibitors” (The Procter & Gamble Company, priority 2000, dated 2005).

Test system: asthma sufferer
Assay: Example E: inhalation aerosol for asthma
Type: in vivo, human
Settings: 5.0% w/v aerosol, 0.01 mL sprayed into the mouth while inhaling
Description: An inhalation aerosol composition, according to the present invention, is made comprising: An asthma sufferer sprays 0.01 mL via a pump actuator into the mouth while inhaling.

SMILES: COc1ccc(-c2ccc(S(=O)(=O)N(C)C(C(=O)O)C3CCN(CCc4ccccc4)CC3)cc2)cc1 (stereo not shown) [Example 17, [(4′-Methoxy-biphenyl-4-sulfonyl)-methyl-amino]-(1-phenethyl-piperidin-4-yl)-acetic Acid]
- asthma symptoms: Asthma symptoms are diminished
